# Paper PMC7031696 (Cell chemical biology, 2019)
# Where two headings read alike, the source gives them in different places.
# How the values were obtained:
# [1] = tested on: 3D7-MR4 trophozoite parasite-infected RBCs; test: Metabolomic profiling (hydrophilic metabolite changes, UHPLC-MS); assay type: cell-based, Plasmodium falciparum
# [2] = tested on: synchronized Plasmodium falciparum parasites; test: Microscopical study of cell morphology after 8-h exposures (Figure S4); assay type: cell-based; conditions: 3× the IC50^8h of the most sensitive life stage, 8-h intervals
# [3] = tested on: asynchronous 3D7-A10 parasite cultures; test: Standard 72-h exposure asexual blood stage susceptibility assay (IC50^72h); assay type: cell-based, Plasmodium falciparum; conditions: Plasmodium falciparum, 3D7, 72 h, read-out: Overall (72hr assay) Mean IC50 (IC50^72h)
# [4] = tested on: 3D7-A10 or Dd2-B2 parasites; test: Resistance selections (single step, pulsing or ramping); assay type: cell-based, Plasmodium falciparum
# [5] = tested on: Plasmodium falciparum 3D7-A10 parasites; test: Stage specificity assay (8-h exposure of synchronized stages, IC50^8h); assay type: cell-based; conditions: for IC50: Plasmodium falciparum
# [6] = 10 × IC50^72h, 2.5 hr, trophozoites
structure (smiles),measurement,setting,value
CC(C)(C)OC(=O)N1CCN(c2ccccc2NC(=O)c2cccc(C(F)(F)F)c2Oc2ccc(F)cc2)CC1 [MMV030666],metabolic signature: increases in the pyrimidine precursors dihydroorotate and N-carbamoyl-L-aspartate (mETC disruption),[1]; [6],observed
same,orotidine 5-P levels,[1]; [6],decreased
same,peptide levels (hemoglobin catabolism signature),[1]; [6],decreased peptide levels
same,Log2(fold changes) 3-phosphoglycerate,"[1]; metabolite 3-phosphoglycerate, log2 fold change",0.0028
same,Log2(fold changes) 4-Pyridoxic acid,"[1]; metabolite 4-Pyridoxic acid, log2 fold change",-0.4279
same,Log2(fold changes) 4-aminobutyrate,"[1]; metabolite 4-aminobutyrate, log2 fold change",-0.0634
same,Log2(fold changes) 4-phosphopantetheine,"[1]; metabolite 4-phosphopantetheine, log2 fold change",-0.3320
same,Log2(fold changes) 4-phosphopantothenate,"[1]; metabolite 4-phosphopantothenate, log2 fold change",-1.0807
same,Log2(fold changes) 5-aminopentanoic acid,"[1]; metabolite 5-aminopentanoic acid, log2 fold change",0.0000
same,Log2(fold changes) 5-methyl-THF,"[1]; metabolite 5-methyl-THF, log2 fold change",0.0000
same,Log2(fold changes) 5-phosphoribosyl-1-pyrophosphate,"[1]; metabolite 5-phosphoribosyl-1-pyrophosphate, log2 fold change",-0.6917
same,Log2(fold changes) 6-phospho-D-gluconate,"[1]; metabolite 6-phospho-D-gluconate, log2 fold change",-0.3165
same,Log2(fold change) HVDD,[1]; metabolite HVDD,-4.9061
same,Log2(fold change) Hydroxyisocaproic acid,[1]; metabolite Hydroxyisocaproic acid,0.0000
same,Log2(fold change) IDP,[1]; metabolite IDP,0.0000
same,Log2(fold change) IMP,[1]; metabolite IMP,0.0932
same,Log2(fold change) Inositol,[1]; metabolite Inositol,0.0000
same,Log2(fold change) Isopentyl-PP,[1]; metabolite Isopentyl-PP,0.0000
same,Log2(fold change) L-arginino-succinate,[1]; metabolite L-arginino-succinate,-1.0911
same,Log2(fold change) LD,[1]; metabolite LD,-0.6358
same,Log2(fold change) Myristoyl/tetradecanoyl-CoA,[1]; metabolite Myristoyl/tetradecanoyl-CoA,0.0000
same,Log2(fold change) N-Acetyl-L-alanine,[1]; metabolite N-Acetyl-L-alanine,-0.5215
same,Log2(fold change) N-acetyl-L-ornithine,[1]; metabolite N-acetyl-L-ornithine,0.0000
same,Log2(fold change) N-acetyl-glucosamine-1/6-phosphate,[1]; metabolite N-acetyl-glucosamine-1/6-phosphate,-0.1279
same,Log2(fold change) N-acetyl-glutamate,[1]; metabolite N-acetyl-glutamate,0.2373
same,Log2(fold change) N-acetyl-glutamine,[1]; metabolite N-acetyl-glutamine,-0.0526
same,Log2(fold change) N-carbamoyl-L-aspartate,[1]; metabolite N-carbamoyl-L-aspartate,1.9816
same,Log2(fold change) NAD+,[1]; metabolite NAD+,-0.1975
same,Log2(fold change) NADH,[1]; metabolite NADH,1.6901
same,Log2(fold change) NADP+,[1]; metabolite NADP+,-0.2280
same,Log2(fold change) NADPH,[1]; metabolite NADPH,1.2462
same,Log2(fold change) O-acetyl-L-serine,[1]; metabolite O-acetyl-L-serine,0.0000
same,Log2(fold change) Octoluse 8/1P,[1]; metabolite Octoluse 8/1P,0.2225
same,Log2(fold change) Octoluse Bisphosphate,[1]; metabolite Octoluse Bisphosphate,-1.0839
same,Log2(fold change) PD,[1]; metabolite PD,-3.4872
same,Log2(fold change) PE,[1]; metabolite PE,-3.3751
same,Log2(fold change) PEE,[1]; metabolite PEE,-2.7815
same,Log2(fold change) PEEK,[1]; metabolite PEEK,-2.6677
same,Log2(fold change) PVNF,[1]; metabolite PVNF,-4.4222
same,Log2(fold change) Pyroglutamic acid,[1]; metabolite Pyroglutamic acid,0.3360
same,Log2(fold change) Pyrophosphate,[1]; metabolite Pyrophosphate,0.0000
same,Log2(fold change) Ribose-5-phosphate,[1]; metabolite Ribose-5-phosphate,-0.7810
same,Log2(fold change) S-adenosyl-L-homocysteine,[1]; metabolite S-adenosyl-L-homocysteine,0.2136
same,Log2(fold change) S-adenosyl-L-methioninamine,[1]; metabolite S-adenosyl-L-methioninamine,0.0000
same,Log2(fold change) S-adenosyl-L-methionine,[1]; metabolite S-adenosyl-L-methionine,0.0000
same,Log2(fold change) S-methyl-5'-thioadenosine,[1]; metabolite S-methyl-5'-thioadenosine,0.3369
same,Log2(fold change) SD,[1]; metabolite SD,-2.5205
same,Log2(fold change) SDL,[1]; metabolite SDL,-4.4795
same,Log2(fold change) SID,[1]; metabolite SID,0.0000
same,Log2(fold change) Sedoheptulose bisphosphate,[1]; metabolite Sedoheptulose bisphosphate,-0.5250
same,Log2(fold change) Thiamine pyrophosphate,[1]; metabolite Thiamine pyrophosphate,-0.1162
same,Log2(fold changes) UDP-D-glucose,"[1]; metabolite UDP-D-glucose, log2 fold change",-0.1835
same,Log2(fold changes) UDP-D-glucuronate,"[1]; metabolite UDP-D-glucuronate, log2 fold change",-0.4871
same,Log2(fold changes) UDP-N-acetyl-glucosamine,"[1]; metabolite UDP-N-acetyl-glucosamine, log2 fold change",-0.5093
same,Log2(fold changes) UDP,"[1]; metabolite UDP, log2 fold change",-1.4928
same,Log2(fold changes) UMP,"[1]; metabolite UMP, log2 fold change",-0.5598
same,Log2(fold changes) UTP,"[1]; metabolite UTP, log2 fold change",-1.9407
same,Log2(fold change) hydroxyphenylpyruvate,[1]; metabolite hydroxyphenylpyruvate,0.0000
same,Log2(fold change) hydroxyproline/Aminolevulinate,[1]; metabolite hydroxyproline/Aminolevulinate,-0.0744
same,Log2(fold change) hypoxanthine,[1]; metabolite hypoxanthine,0.1169
same,Log2(fold change) indole,[1]; metabolite indole,0.3440
same,Log2(fold change) inosine,[1]; metabolite inosine,-0.2932
same,Log2(fold change) isoleucine,[1]; metabolite isoleucine,-0.1542
same,Log2(fold change) lactate,[1]; metabolite lactate,-0.3562
same,Log2(fold change) leucine,[1]; metabolite leucine,-0.3099
same,Log2(fold change) lysine,[1]; metabolite lysine,0.0000
same,Log2(fold change) malate,[1]; metabolite malate,-1.0993
same,Log2(fold change) maleic acid,[1]; metabolite maleic acid,-0.3336
same,Log2(fold change) methionine,[1]; metabolite methionine,-0.1260
same,Log2(fold change) myo-inositol,[1]; metabolite myo-inositol,0.0000
same,Log2(fold change) nicotinamide mononucleotide,[1]; metabolite nicotinamide mononucleotide,0.0000
same,Log2(fold change) nicotinate,[1]; metabolite nicotinate,-0.1069
same,Log2(fold change) ornithine,[1]; metabolite ornithine,0.0000
same,Log2(fold change) orotate,[1]; metabolite orotate,-0.1643
same,Log2(fold change) orotidine-5'-phosphate,[1]; metabolite orotidine-5'-phosphate,-1.8500
same,Log2(fold change) oxaloacetate,[1]; metabolite oxaloacetate,0.0000
same,Log2(fold change) p-aminobenzoate,[1]; metabolite p-aminobenzoate,0.0000
same,Log2(fold change) p-hydroxybenzoate,[1]; metabolite p-hydroxybenzoate,0.0000
same,Log2(fold change) pantothenate,[1]; metabolite pantothenate,-0.0587
same,Log2(fold change) phenylalanine,[1]; metabolite phenylalanine,-0.5281
same,Log2(fold change) phenylpyruvate,[1]; metabolite phenylpyruvate,0.0000
same,Log2(fold change) phosphoenolpyruvate,[1]; metabolite phosphoenolpyruvate,0.0797
same,Log2(fold change) prephenate,[1]; metabolite prephenate,0.0000
same,Log2(fold change) proline,[1]; metabolite proline,-0.4182
same,Log2(fold change) pyridoxine,[1]; metabolite pyridoxine,0.0000
same,Log2(fold change) pyruvate,[1]; metabolite pyruvate,-1.3359
same,Log2(fold change) riboflavin,[1]; metabolite riboflavin,-0.6446
same,Log2(fold change) ribose,[1]; metabolite ribose,0.0000
same,Log2(fold change) ribose-phosphate,[1]; metabolite ribose-phosphate,0.0000
same,Log2(fold change) ribulose-5-phosphate,[1]; metabolite ribulose-5-phosphate,-0.3252
same,Log2(fold change) serine,[1]; metabolite serine,-0.1988
same,Log2(fold change) sn-glycerol-3-phosphate,[1]; metabolite sn-glycerol-3-phosphate,0.6292
same,Log2(fold change) succinate/Methylmalonic acid,[1]; metabolite succinate/Methylmalonic acid,-1.4071
same,Log2(fold change) succinyl-CoA/methylmalonyl-CoA,[1]; metabolite succinyl-CoA/methylmalonyl-CoA,-0.7249
same,Log2(fold change) taurine,[1]; metabolite taurine,0.0000
same,Log2(fold change) thiamine,[1]; metabolite thiamine,0.0000
same,Log2(fold change) threonine/homoserine,[1]; metabolite threonine/homoserine,-0.8029
same,Log2(fold change) thymidine,[1]; metabolite thymidine,0.0000
same,Log2(fold changes) thymine,"[1]; metabolite thymine, log2 fold change",0.0000
same,Log2(fold changes) trehalose-6-Phosphate,"[1]; metabolite trehalose-6-Phosphate, log2 fold change",0.0000
same,Log2(fold changes) tryptophan,"[1]; metabolite tryptophan, log2 fold change",0.1993
same,Log2(fold changes) tyrosine,"[1]; metabolite tyrosine, log2 fold change",-0.2219
same,Log2(fold changes) uridine,"[1]; metabolite uridine, log2 fold change",0.0000
same,digestive vacuole morphology,[2],bloated digestive vacuoles
same,most susceptible stage by cell morphology,[2],late trophozoite stage
same,IC50,[3],462 nM
same,outcome of ramping resistance selection,"[4]; 3D7-A10, 1 × to 1.8 × IC50^72h over 3 months",did not produce resistance
same,outcome of resistance selections (continuous exposure or pulsing),"[4]; 5 × 10^8 to 1 × 10^9 3D7-A10 or Dd2-B2 parasites, 3–6 × IC50^72h",failed to yield resistance
same,minimum inocula of resistance,[4]; from failed selections in 3D7-A10 / Dd2-B2,above 5 × 10^8 parasites
same,Ratio lowest IC50 8hr/IC50 72hr,[5]; 3D7-A10,1.9
same,killing in stage specificity assay,"[5]; 8-h exposures, survival curves",incomplete killing
same,IC50,"[5]; 3D7, read-out: Early rings Mean IC50 (IC50^8h), 8-h exposure 0–8 hr, 3D7-A10, survival at 60 h",10.3 µM
same,IC50,"[5]; 3D7, read-out: Early trophozoites Mean IC50 (IC50^8h), 8-h exposure 16–24 hr, 3D7-A10, survival at 60 h",5.12 µM
same,IC50,"[5]; 3D7, read-out: Late rings Mean IC50 (IC50^8h), 8-h exposure 8–16 hr, 3D7-A10, survival at 60 h",11.4 µM
same,IC50,"[5]; 3D7, read-out: Late trophozoites Mean IC50 (IC50^8h), 8-h exposure 24–32 hr, 3D7-A10, survival at 60 h",0.858 µM
same,IC50,"[5]; 3D7, read-out: Schizonts Mean IC50 (IC50^8h), 8-h exposure 32–40 hr, 3D7-A10, survival at 60 h",4.19 µM
same,Stage of peak activity (Figure 6),[5]; period when the parasite was most susceptible (lowest IC50^8h),late trophozoites
same,Peak Activity (Table S1),[5]; stage(s) with the lowest IC50^8h,Late Trophs
